Experimental data taken from article PMC10817531, “Chlorinated Enyne Fatty Acid Amides from a Marine Cyanobacterium: Discovery of Taveuniamides L-M and Pharmacological Characterization of Taveuniamide F as a GPCR Antagonist with CNR1 Selectivity” (Marine Drugs, 2023).
Values joined by “and” are separate entries in the source; they are usually repeats but may differ in a detail not shown here. Identical values can stand only once.

What was measured:
Assay in all cases: PathHunter β-arrestin GpcrMAX assay
Type in all cases: cell-based
HTR2C = target: T1, HTR2C (Homo sapiens, UniProt P28335)
T1 construct: β-galactosidase enzyme fragment for EFC (ProLink by own knowledge); host or cells: U2OS
T1 sequence (P28335 33-458): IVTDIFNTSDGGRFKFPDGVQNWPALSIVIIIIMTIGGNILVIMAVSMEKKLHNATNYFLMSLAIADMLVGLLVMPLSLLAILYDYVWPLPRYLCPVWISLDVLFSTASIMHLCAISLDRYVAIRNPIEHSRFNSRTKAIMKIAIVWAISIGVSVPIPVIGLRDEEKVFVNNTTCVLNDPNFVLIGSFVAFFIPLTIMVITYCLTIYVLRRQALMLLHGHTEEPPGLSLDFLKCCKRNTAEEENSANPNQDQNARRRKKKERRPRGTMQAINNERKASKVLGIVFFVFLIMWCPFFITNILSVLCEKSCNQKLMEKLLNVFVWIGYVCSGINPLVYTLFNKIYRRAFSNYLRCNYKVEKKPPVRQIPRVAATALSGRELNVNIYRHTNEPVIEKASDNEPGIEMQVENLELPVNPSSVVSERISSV
Protocol: (§1) GpcrMAX panel biosensor assays were used to characterize taveuniamide F (4, 20 µM) (agonist and antagonist mode). The experiments were carried out by DiscoveRx Corporation (Fremont, CA, USA) as described before, using PathHunter β-arrestin enzyme fragment complementation (EFC) technology.
(§2) Dose–response curves were obtained by subjecting taveuniamide F (4) to a secondary antagonist screen utilizing ten GPCR biosensor assays (Arrestin) against the following targets: GPR119, NPSR1b, HTR2C, CCR9, CHRM4, GPR120, HTR2A, GPR103, CNR1, and CNR2. Stably transfected HEK293 cells expressing GPR119, U2OS cells expressing NPSR1b, HTR2C and HTR2A, and CHO-K1 cells expressing the rest of the mentioned receptors, were incubated with 4 for 30 min. The assays were performed at 10-point concentrations using 3-fold serial dilutions in duplicate, where the highest concentration was 50 µM.

NPSR1b = target: T2, NPSR1b (Homo sapiens, UniProt Q6W5P4)
T2 construct: β-galactosidase enzyme fragment for EFC (ProLink by own knowledge); host or cells: U2OS
Protocol: as §1, §2

GPR120 = target: T3, GPR120 (Homo sapiens, UniProt Q5NUL3)
T3 construct: host or cells: CHO-K1
T3 sequence (Q5NUL3 1-361): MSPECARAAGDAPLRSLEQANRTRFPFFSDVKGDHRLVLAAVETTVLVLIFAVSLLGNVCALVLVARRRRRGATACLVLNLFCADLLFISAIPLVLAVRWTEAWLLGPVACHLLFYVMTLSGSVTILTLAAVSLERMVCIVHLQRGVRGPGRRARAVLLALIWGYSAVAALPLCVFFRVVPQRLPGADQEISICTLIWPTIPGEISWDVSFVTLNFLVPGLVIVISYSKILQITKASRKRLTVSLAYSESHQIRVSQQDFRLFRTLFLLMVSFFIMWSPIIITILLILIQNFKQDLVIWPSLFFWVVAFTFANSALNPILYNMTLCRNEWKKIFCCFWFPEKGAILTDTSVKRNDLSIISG
Protocol: as §1, §2

CNR2 = target: T4, CNR2 (Homo sapiens, UniProt P34972)
T4 construct: purchased DiscoveRx (Eurofins) gpcrMAX PathHunter β-arrestin panel
Protocol: as §1, §2

HTR2A = target: T5, HTR2A (Homo sapiens, UniProt P28223)
T5 construct: host or cells: U2OS
Protocol: as §1, §2

[1] = antagonist dose–response, 10-point, U2OS cells, 30 min
[2] = antagonist mode (% inhibition), 20 µM

T2 sequence (Q6W5P4 1-377 isoform Q6W5P4-4): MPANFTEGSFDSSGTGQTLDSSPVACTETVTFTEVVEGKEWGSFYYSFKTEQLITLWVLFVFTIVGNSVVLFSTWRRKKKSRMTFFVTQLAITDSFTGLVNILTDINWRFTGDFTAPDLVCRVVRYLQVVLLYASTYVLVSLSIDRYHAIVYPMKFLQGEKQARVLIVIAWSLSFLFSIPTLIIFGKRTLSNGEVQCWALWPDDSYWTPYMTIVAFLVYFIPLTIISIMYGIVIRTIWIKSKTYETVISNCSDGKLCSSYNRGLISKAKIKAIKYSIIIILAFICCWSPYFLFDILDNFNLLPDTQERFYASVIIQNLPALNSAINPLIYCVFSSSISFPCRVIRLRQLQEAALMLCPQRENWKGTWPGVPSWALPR
T5 sequence (P28223 whole entry): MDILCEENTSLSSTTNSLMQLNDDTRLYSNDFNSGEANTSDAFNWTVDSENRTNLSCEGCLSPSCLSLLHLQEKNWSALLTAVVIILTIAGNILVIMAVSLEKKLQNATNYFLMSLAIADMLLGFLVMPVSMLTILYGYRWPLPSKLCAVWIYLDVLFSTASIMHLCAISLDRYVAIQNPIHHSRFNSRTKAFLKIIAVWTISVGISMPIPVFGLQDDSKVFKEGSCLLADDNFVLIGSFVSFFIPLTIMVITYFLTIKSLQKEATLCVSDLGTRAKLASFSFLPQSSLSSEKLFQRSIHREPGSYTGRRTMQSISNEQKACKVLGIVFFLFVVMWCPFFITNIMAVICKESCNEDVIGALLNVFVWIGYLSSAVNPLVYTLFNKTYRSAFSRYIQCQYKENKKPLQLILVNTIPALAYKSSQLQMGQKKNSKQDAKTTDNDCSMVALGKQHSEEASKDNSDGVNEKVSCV
T4 sequence (P34972 whole entry): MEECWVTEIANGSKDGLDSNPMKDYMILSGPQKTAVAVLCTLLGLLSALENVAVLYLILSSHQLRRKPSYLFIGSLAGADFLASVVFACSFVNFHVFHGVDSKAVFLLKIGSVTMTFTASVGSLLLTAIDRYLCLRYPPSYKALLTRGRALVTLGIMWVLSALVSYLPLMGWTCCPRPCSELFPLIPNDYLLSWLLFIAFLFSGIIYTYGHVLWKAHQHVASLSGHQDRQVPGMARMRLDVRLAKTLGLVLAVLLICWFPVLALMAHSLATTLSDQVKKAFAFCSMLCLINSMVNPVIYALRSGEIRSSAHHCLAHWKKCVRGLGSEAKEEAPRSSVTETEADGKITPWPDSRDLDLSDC

## CC(=O)N[C@@H](CCCC#C/C=C/Cl)CCCCCCC(Cl)Cl [Compound 4, taveuniamide F]
HTR2C; [1]
  IC50: > 50 µM
HTR2C; [2]
  inhibition: ≥ 80%
  inhibition at 20 µM: 99.1%
NPSR1b; [1]
  IC50: 4.4 µM and 4.36 µM
NPSR1b; [2]
  inhibition: 102% and ≥ 80%
GPR120; antagonist dose–response, 10-point, CHO-K1 cells, 30 min
  IC50: 4.7 µM and 4.72 µM
GPR120; [2]
  inhibition: ≥ 80%
  inhibition at 20 µM: 96.9%
CNR2
  inhibition at 20 µM: 48.6%
HTR2A; [1]
  IC50: 4.8 µM and 4.83 µM
HTR2A; [2]
  inhibition: ≥ 80%
  inhibition at 20 µM: 84.9%
